Experimental data reported in patent publication EP1001774B1, “USE OF PHOSPHOLAMBAN INHIBITORS FOR INCREASING CORONARY FLOW” (ORION CORPORATION, priority 1997, dated 1999).
“Also recorded” adds a separate entry of the source.

Columns and labels:
[1] = target: T1, phospholamban (Cavia porcellus, UniProt A0A286XLC6); test: Calcium uptake assay (fluo-3) in SR vesicles from cardiac tissue; format: biochemical, guinea-pig; settings: 50 and 100 µM; Figure 2A; three experiments per group
T1 construct: calcium uptake into the SR vesicles prepared from cardiac tissue; from tissue; host or cells: guinea-pig heart (ventricular myocardium), SR vesicle preparation
T1 sequence (A0A286XLC6 1-52): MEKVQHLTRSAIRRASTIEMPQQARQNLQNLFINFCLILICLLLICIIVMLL
Excerpt: (§1) The direct binding of a compound to the phospholamban protein can be ascertained by the circular dichroism (CD) spectroscopy. The methods for determining whether a compound relieves the inhibitory effect of phospholamban on SR Ca^2+-ATPase by direct binding to the phospholamban protein, i.e. is a phospholamban inhibitor, are illustrated in detail in the experimental section.
(§2) The effect on phospholamban of the compounds used in the invention was verified by measuring its effects on calcium uptake into the SR vesicles prepared from cardiac tissue and into vesicles prepared from fast skeletal muscle (psoas m.). […] The methods are described below in detail.
(§3) Guinea pigs (10-12) were decapited. Their hearts or the psoas muscles were excised, washed in ice-cold 0.9 % NaCl and cut into pieces in a buffer containing 20 mM Tris-maleate, 0.3 M sucrose, pH 7.0. Thereafter tissue pieces were homogenized with Polytron and further with Potter (10 strokes). The homogenate was centrifugated at 1000 g for 15 min at 4 °C. The supernatant was collected and the pellet was resuspended into 5 ml of the buffer (20 mM Tris-maleate, 0.3 M sucrose, pH 7.0) and recentrifugated at 1000 g for 10 min at 4 °C. The obtained supernatant was combined with the earlier collected supernatant and centrifugated once again at 10 000 g for 20 min at 4 °C. The final supernatant was filtered into a bottle equipped with a magnetic stirrer. KCl was added to the filtered supernatant to achieve the final concentration of 0.6 M (at 4 °C). The obtained solution was centrifugated at 100 000 g for 60 min at 4 °C. The pellet was suspended in 5 ml of the buffer containing 20 mM Tris-maleate, 0.3 M sucrose, pH 7.0 and centrifugated at 100 000 g for 60 min at 4 °C. The obtained pellet was suspended in 5 ml of buffer containing 20 mM Tris-maleate, 0.3 M sucrose, 0.1 M KCI, pH 7.0 and stored at -80 °C until use. The protein concentration was also measured in order to standardise the separately prepared vesicle preparations.
(§4) In the calcium uptake assay, the fluorescent indicator, fluo-3 was used to detect the decrease of the extravesicular Ca^2+-concentration, when the SR Ca^2+ATPase was transferring Ca^2+ from the extravesicular space into the SR-vesicles.
(§5) The SR-vesicles obtained above (50 µg protein/ml) were preincubated with or without the test compound at 37 °C for 5 min in the assay buffer containing 40 mM imidazole, 95 mM KCI, 5 mM NaN3, 5 mM MgCl2, 0.5 mM EGTA, 5 mM potassium oxalate, 2 µM ruthenium red, 5 µM fluo-3, pH 7.0. The free calcium was adjusted to 0.1 µM or to 0.04 µM by CaCl2. The reaction was initiated by adding ATP (5 mM). The final reaction volume was 1.5 ml. The fluorescence of reaction mixture was measured for 3 min by using the excitation and emission wavelengths of 510 nm and 530 nm, respectively.

[2] = test system: SR Ca^2+-ATPase; test: Calcium uptake assay (fluo-3) in SR vesicles from fast skeletal muscle (psoas m.), which contain no phospholamban; format: biochemical, guinea-pig; settings: 50 and 100 µM; Figure 2B; three experiments per group
Excerpt: as §1, §2, §3, §4, §5

[3] = target: T2, PLB[1-36 a.a.] (Homo sapiens, UniProt P26678); test: Circular dichroism (CD) spectroscopy, binding to the cytosolic part of phospholamban; settings: 50 µM in water, Fig. 1
T2 construct: N-terminal fragment of human phospholamban (PLB [1-36 a.a.]); made in house; host or cells: chemical peptide synthesis (no expression host)
T2 sequence (P26678 1-36 limits assumed): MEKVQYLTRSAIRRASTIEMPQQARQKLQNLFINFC
Experimental: (§6) Both the 36 amino acid N-terminal fragment of human phospholamban (PLB [1-36 a.a.]) and the 36 amino acid N-terminal fragment of double phosphorylated human phospholamban (PLB [1-36 a.a.](Ser16PO3-, Thr17PO3-)) were obtained by peptide synthesis. The peptides were purified by reverse phase HPLC, analysed for homogenity by mass spectrometry and were found pure at 97 %. The peptides were lyophilized and then resuspended in water at the final concentration of 0.1 mM, for CD analysis. The pH of both solutions was between 3 and 4 and was not further adjusted. Compound of Example 1c was solved in water at a final concentration of 0.1 mM. The pH was adjusted at 7.2 by adding 1 N NaOH.
(§7) Circular dichroism spectra were acquired at 24 °C on samples of 100 µl. The spectra were recorded on a Jasco J-720 spectropolarimeter using a 1 mm path-length quartz cuvette. The band width was 1 nm, the sensitivity 20 mdeg, the step resolution 0.5 nm, the response time 0.5 sec, and the scan speed 20 nm/min (from 250 to 190 nm). The spectra were expressed in [θ] x 10^-3 x degrees x cm^2 x dmol^-1.

[4] = target: T3, PLB[1-36 a.a.](Ser16PO3-, Thr17PO3-) (Homo sapiens, UniProt P26678); test: Circular dichroism (CD) spectroscopy, binding to double phosphorylated phospholamban fragment; settings: 50 µM in water, Fig. 1
T3 construct: (PLB [1-36 a.a.](Ser16PO3-, Thr17PO3-)); made in house; host or cells: chemical peptide synthesis (no expression host)
T3 sequence (P26678 1-36): T2 sequence (P26678 1-36 limits assumed)
Experimental: as §6, §7

[5] = test system: coronary arteries; test: Coronary flow in isolated paced heart (Langendorff, constant pressure); parameters: species or system guinea-pig; settings: 0.3 - 30 µM; six hearts paced at 250 beats/min; Figure 3A
Experimental: Guinea-pigs of either sex weighing 300-400 g were used in the study. After the guinea-pig was sacrificed by a blow on the skull and decapitated the heart was rapidly excised. The heart was then rinsed in cold oxygenated perfusion buffer. A cannula was inserted into the aorta and secured with a ligature. Retrograde perfusion began as soon as the heart was placed in a thermostatically controlled moist chamber of the Langendorff apparatus. Modified Tyrode solution (37 °C), equilibrated in a thermostatically controlled bulb oxygenator with carbogen (95 % O2 and 5% CO2) was used as a perfusion buffer. The composition of the Tyrode solution was (in mM): NaCl 135; MgCl2 x 6H2O 1; KCl 5; CaCl2 x 2H2O 2; NaHCO3 15; Na2HPO4 x 2H2O 1; glucose 10; pH 7.3-7.4. The experiments were carried out under constant pressure condition (50 mmHg). After a short prestabilization (10 min) a latex balloon (size 4) was carefully placed into the left ventricle through the left pulmonary vein and the left atrium. The latex balloon was attached to a stainless-steel cannula coupled with a pressure transducer. The latex balloon, the cannula and the chamber of the pressure transducer were filled with ethylene glycol / water (1:1) mixture avoiding any air-bubble. The isovolumetric left ventricular pressure was recorded through the pressure transducer. The maximal positive and negative derivatives of the left ventricular pressure were calculated by using the digitized pressure signals. At the beginning of the experiment, the volume of the balloon was adjusted to obtain a diastolic pressure of approximately 5 mmHg. Coronary flow (ml/min) was continuously recorded by an electromagnetic flow meter with a flow probe inserted above the aortic cannula. The heart was paced at 250 beats/min with a coaxial electrode localized on the surface of the right atrium. Before starting the experiment, the heart was allowed to stabilise further for 30 - 50 min with vehicle (0.1% DMSO) to reach a stable coronary flow.
After 15 min baseline recording various concentrations of the test compound of Example 1c were added to the perfusion buffer at 15 min intervals. The concentration range of 0.3 - 30 µM was tested. The vehicle concentration (0.1% DMSO) was kept constant throughout the experiment.

[6] = test system: endothelial cells of the coronary vessels; test: Coronary flow in freely beating isolated heart with and without Triton x 100 destruction of endothelial cells; parameters: species or system guinea-pig; settings: 0.3 - 30 µM; Figures 4A and 4B
Experimental: Substance P, an endothelial-dependent vasodilator, was used as a reference compound. Triton x 100 was used to destroy the endothelial cells of the coronary vessels.
The experiment was carried out under constant pressure condition (50 mmHg) on freely beating heart. Coronary flow (ml / min) was continuously recorded by an electromagnetic flow meter with a flow probe inserted above the aortic cannula.
After 15 min baseline recording a bolus dose of substance P (0.1 µM / 0.3 ml) was added to the perfusion buffer via a side branch of the aortic cannula (Figure 4B). The addition of substance P was repeated twice before the injection of triton x 100 (0.05% / 0.2 ml) was given via a needle inserted into the cannula just above the aorta. After 85 min of triton x 100 injection a control dose of substance P was added twice to the perfusion buffer in order to check if the endothelial cells has destroyed. Thereafter the concentration range of 0.3 - 30 µM of the compound of Example 1c was tested. The vehicle concentration (0.1% DMSO) was kept constant throughout the experiment. A control experiment is shown in Figure 4A where the effect of Example 1 c is seen at the same concentration range when the […] is not disrupted by Triton x 100.

Question: Which “Ca^2+ uptake rate into the cardiac SR vesicles” value [1] does the source give for Cc1c(Cc2ccccc2)c(=O)oc2cc(OCc3nnn[nH]3)cc(OCc3nnn[nH]3)c12 [Example 1c, 3-Benzyl-5,7-bis[(1H -tetrazol-5-yl)methoxy]-4-methyl-2H-1-benzopyran-2-one] here?
Answer: accelerated the calcium uptake into the cardiac SR vesicles

Question: And the “Ca^2+ uptake rate into the fast skeletal muscle SR vesicles” value [2]?
Answer: did not change the calcium uptake

Question: What about the “interaction with PLB[1-36 a.a.] (CD spectra)” value [3] of the same compound?
Answer: forms a complex with PLB at their N-terminal domain; also recorded: interacts with the cytosolic part of phospholamban PLB[1-36 a.a.]

Question: And the “interaction with PLB[1-36 a.a.](Ser16PO3-, Thr17PO3-) (CD spectra)” value [4]?
Answer: does not interact or interacts weakly with the phosphorylated phospholamban

Question: What about the coronary flow [5] of the same compound?
Answer: increase in coronary flow

Question: What about the “mechanism of the vasodilatory effect (coronary flow with / without Triton x 100)” value [6] of the same compound?
Answer: due to an endothelial-mediated mechanism
